From paper PMC4963535, “Structure-guided development of heterodimer-selective GPCR ligands” (Nature Communications, 2016)
Entries after “also recorded” stand apart in the source; their conditions may differ. Like-named read-outs stand apart in the source and are kept apart here. Non-standard residues stand in square brackets, D forms with d. No end group written: not given here. N(4-hydroxyphenethyl)Gly = O=C(O)CNCCc1ccc(O)cc1; biphenyltriazole = not defined here

Experiments:
D2R/NTS1R = biological target: T1, D2R/NTS1R (Homo sapiens, UniProt P14416+P30989); assay: β-arrestin-2 recruitment (DiscoveRx PathHunter), HEK 293 cells with ProLink-tagged D2R and NTS1R; type: cell-based; settings: D2R/NTS1R-coexpressing cells
T1 construct: host or cells: HEK 293 stably expressing EA-tagged β-arrestin-2

D2SR = biological target: T2, D2SR (Homo sapiens, UniProt P14416); assay: cAMP BRET assay (CAMYEL biosensor), HEK 293 T cells expressing D2SR; type: cell-based
T2 construct: expressed in transfected cells; host or cells: HEK 293 T

D2LR/NTS1R = D2LR/NTS1R (Homo sapiens, UniProt P14416+P30989); assay: [3H]spiperone displacement, membranes from HEK 293 T cells coexpressing D2LR and NTS1R
hD3R = biological target: T3, hD3R (Homo sapiens, UniProt P35462); assay: [3H]spiperone displacement, membranes from CHO cells stably expressing hD3R; type: binding
T3 construct: expressed in transfected cells

D2R = biological target: T4, D2R (Homo sapiens, UniProt P14416); assay: Antagonist effect on quinpirole-mediated inhibition of cAMP accumulation, HEK 293T cells expressing D2R; type: cell-based; settings: 10 nM quinpirole
T4 construct: expressed in transfected cells; host or cells: HEK 293 T

hD4.4R = biological target: T5, hD4.4R (Homo sapiens, UniProt P21917); assay: [3H]spiperone displacement, membranes from CHO cells stably expressing hD4.4R; type: binding
T5 construct: expressed in transfected cells
T5 sequence (P21917 1-419): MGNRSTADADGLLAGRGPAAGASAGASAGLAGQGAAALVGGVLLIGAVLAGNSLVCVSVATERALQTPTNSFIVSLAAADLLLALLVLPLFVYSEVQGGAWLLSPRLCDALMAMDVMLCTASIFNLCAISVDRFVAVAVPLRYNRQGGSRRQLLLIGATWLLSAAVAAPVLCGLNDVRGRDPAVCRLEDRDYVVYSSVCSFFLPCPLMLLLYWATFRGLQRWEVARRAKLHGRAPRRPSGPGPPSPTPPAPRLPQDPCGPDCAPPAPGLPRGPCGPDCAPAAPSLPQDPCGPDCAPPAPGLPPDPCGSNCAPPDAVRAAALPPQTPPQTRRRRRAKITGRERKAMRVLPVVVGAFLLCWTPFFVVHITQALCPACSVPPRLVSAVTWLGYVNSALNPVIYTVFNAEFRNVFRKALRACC

D2R_D80A/NTS1R [1] = biological target: T6, D2R_D80A/NTS1R (Homo sapiens, UniProt P14416+P30989, D80A); assay: β-arrestin-2 recruitment (DiscoveRx PathHunter), ProLink-tagged signalling incompetent D2R_D80A coexpressed with NTS1R; type: cell-based
T6 construct: host or cells: HEK 293 stably expressing EA-tagged β-arrestin-2

D2SR/NTS1R = biological target: T7, D2SR/NTS1R (Homo sapiens, UniProt P14416+P30989); assay: cAMP BRET assay (CAMYEL biosensor), HEK 293 T cells coexpressing D2SR and NTS1R; type: cell-based; settings: for Emax: HEK-293T, read-out: Effect (Emax) D2SR/NTS1R, cAMP accumulation
T7 construct: expressed in transfected cells; host or cells: HEK 293 T

hNTS2R = biological target: T8, hNTS2R (Homo sapiens, UniProt O95665); assay: [3H]NT(8-13) displacement, homogenates from transiently transfected HEK 293T cells, human NTS2R; type: binding
T8 construct: host or cells: HEK 293T

[2] = biological target: porcine striatal membranes (D2LR, NTS1R); assay: [3H]spiperone displacement, porcine striatal membranes; type: binding; settings: porcine striatum
D2R_D80A/NTS1R [3] = biological target: T6, D2R_D80A/NTS1R; assay: cAMP accumulation, cells coexpressing signalling incompetent D2R (D80A) and NTS1R; type: cell-based
hD2LR = biological target: T9, hD2LR (Homo sapiens, UniProt P14416); assay: [3H]spiperone displacement, membranes from CHO cells stably expressing hD2LR; type: binding
T9 construct: expressed in transfected cells

human D2LR = biological target: T10, human D2LR (Homo sapiens, UniProt P14416); assay: [3H]spiperone displacement, membranes from HEK 293 T cells transiently transfected with D2LR; type: binding; settings: D2LR monoexpression; mean ± s.e.m.
T10 construct: host or cells: HEK 293 T

hD2SR = biological target: T11, hD2SR (Homo sapiens, UniProt P14416); assay: [3H]spiperone displacement, membranes from CHO cells stably expressing hD2SR; type: binding
T11 construct: expressed in transfected cells

NTS1R [4] = biological target: T12, NTS1R (Homo sapiens, UniProt P30989); assay: radioligand displacement, homogenates from CHO cells stably expressing human NTS1R; type: binding; settings: [3H]NT, mean ± s.d.
NTS1R [5] = biological target: T12, NTS1R; assay: cAMP BRET assay (CAMYEL biosensor), HEK 293 T cells expressing NTS1R; type: cell-based; parameters: expressed in transfected cells; host or cells: HEK 293 T
[6] = biological target: T13, D2R/NTS1R heterodimer (D2LR and NTS1R coexpressed in HEK 293 T membranes), P14416; assay: +1 uM NT(8-13); settings: N-homotyrosine (NhTyr) in place of tyrosine; N-terminus carries a 22-atom polyethylene glycol-based spacer, a biphenyltriazole moiety and a 2-methoxyphenylpiperazine D2R antagonist pharmacophore
[7] = biological target: T13, D2R/NTS1R heterodimer (D2LR and NTS1R …); assay: monophasic; settings: N-homotyrosine (NhTyr) in place of tyrosine; N-terminus carries a 22-atom polyethylene glycol-based spacer, a biphenyltriazole moiety and a 2-methoxyphenylpiperazine D2R antagonist pharmacophore

T2 sequence (P14416 1-414 isoform P14416-2): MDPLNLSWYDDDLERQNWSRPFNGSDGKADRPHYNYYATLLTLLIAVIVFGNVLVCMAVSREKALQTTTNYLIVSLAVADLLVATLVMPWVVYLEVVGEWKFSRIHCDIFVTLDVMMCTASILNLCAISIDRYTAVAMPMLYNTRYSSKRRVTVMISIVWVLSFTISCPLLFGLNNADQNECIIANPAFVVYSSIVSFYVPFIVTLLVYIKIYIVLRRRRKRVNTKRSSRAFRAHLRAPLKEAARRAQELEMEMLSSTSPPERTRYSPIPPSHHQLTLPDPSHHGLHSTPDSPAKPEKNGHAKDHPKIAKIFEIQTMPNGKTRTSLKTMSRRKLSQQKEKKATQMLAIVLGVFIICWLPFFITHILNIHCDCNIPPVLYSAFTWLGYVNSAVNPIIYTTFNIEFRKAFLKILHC
T7 sequence (P14416 1-414 isoform P14416-2): as above
T7 sequence (P30989 whole entry): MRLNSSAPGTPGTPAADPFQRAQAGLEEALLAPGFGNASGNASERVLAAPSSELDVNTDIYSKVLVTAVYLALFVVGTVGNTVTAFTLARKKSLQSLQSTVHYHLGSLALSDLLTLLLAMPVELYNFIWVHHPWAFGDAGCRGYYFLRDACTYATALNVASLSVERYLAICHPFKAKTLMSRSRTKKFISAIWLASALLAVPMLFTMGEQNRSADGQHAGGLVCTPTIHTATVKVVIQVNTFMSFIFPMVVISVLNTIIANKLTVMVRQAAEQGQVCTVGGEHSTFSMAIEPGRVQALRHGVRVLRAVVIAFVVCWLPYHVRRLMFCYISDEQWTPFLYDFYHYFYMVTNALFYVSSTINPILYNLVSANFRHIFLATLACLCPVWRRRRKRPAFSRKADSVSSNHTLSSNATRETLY
T3 sequence (P35462 whole entry): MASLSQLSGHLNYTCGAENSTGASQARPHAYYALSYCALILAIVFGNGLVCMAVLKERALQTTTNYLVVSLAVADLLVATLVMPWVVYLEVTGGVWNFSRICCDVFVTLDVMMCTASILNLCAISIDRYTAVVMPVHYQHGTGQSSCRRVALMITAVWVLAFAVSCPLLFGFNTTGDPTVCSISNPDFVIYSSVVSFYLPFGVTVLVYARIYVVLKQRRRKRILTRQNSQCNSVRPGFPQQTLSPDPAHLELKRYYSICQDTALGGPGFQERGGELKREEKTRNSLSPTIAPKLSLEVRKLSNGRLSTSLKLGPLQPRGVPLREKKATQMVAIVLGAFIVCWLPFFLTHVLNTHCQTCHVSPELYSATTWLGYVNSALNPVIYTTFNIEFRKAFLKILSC
T12 sequence (P30989 whole entry): as the sequence (P30989 whole entry) above
Chain of D2LR/NTS1R (P14416 whole entry): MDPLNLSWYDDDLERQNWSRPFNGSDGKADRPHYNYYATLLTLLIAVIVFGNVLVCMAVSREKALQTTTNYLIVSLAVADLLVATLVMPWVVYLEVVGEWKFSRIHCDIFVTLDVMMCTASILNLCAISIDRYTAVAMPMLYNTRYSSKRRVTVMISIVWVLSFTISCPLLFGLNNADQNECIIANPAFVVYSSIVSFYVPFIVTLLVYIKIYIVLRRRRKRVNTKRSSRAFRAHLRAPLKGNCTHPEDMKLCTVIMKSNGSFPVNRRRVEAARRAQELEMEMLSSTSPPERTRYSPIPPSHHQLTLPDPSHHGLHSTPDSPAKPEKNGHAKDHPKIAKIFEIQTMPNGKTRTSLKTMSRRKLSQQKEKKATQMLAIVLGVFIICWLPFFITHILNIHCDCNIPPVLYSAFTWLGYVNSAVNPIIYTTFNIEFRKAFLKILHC
Chain of D2LR/NTS1R (P30989 whole entry): as the sequence (P30989 whole entry) above
T8 sequence (O95665 whole entry): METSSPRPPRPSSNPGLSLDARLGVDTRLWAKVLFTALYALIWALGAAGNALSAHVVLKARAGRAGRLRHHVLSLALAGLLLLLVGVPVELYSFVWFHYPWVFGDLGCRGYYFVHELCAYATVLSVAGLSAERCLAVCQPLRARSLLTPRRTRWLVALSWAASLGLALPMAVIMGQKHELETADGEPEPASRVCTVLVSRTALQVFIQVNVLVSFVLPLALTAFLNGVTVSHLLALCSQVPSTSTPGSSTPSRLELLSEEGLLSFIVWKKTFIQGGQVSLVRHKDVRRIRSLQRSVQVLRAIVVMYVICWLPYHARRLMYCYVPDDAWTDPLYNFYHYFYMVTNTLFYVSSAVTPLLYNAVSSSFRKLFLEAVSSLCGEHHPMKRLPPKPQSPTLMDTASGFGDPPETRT
T4 sequence (P14416 1-414 isoform P14416-2): as the sequence (P14416 1-414 isoform P14416-2) above
T6 sequence (P14416 1-414 isoform P14416-2 D80A): as the sequence (P14416 1-414 isoform P14416-2) above, with D80A counted along it
T6 sequence (P30989 whole entry): as the sequence (P30989 whole entry) above
T13 sequence (P14416 whole entry, chain 1 of 2): as the sequence (P14416 whole entry) above
T13 sequence (P30989 whole entry, chain 2 of 2, further chain): as the sequence (P30989 whole entry) above
T11 sequence (P14416 1-414 isoform P14416-2): as the sequence (P14416 1-414 isoform P14416-2) above
T1 sequence (P14416 1-414 isoform P14416-2): as above
T1 sequence (P30989 whole entry): as the sequence (P30989 whole entry) above
T9 sequence (P14416 whole entry): as the sequence (P14416 whole entry) above
T10 sequence (P14416 whole entry): as above

What does the source list for `CC[C@H](C)[C@H](NC(=O)[C@H](Cc1ccc(O)cc1)NC(=O)[C@@H]1CCCN1C(=O)[C@H](CCCNC(=N)N)NC(=O)[C@H](CCCNC(=N)N)NC(=O)CCOCCOCCOCCOCCOCCOCCNC(=O)CCOCCOCCOCCOCCOCCOCCNC(=O)c1ccc(-c2ccc(-n3cc(CCCCN4CCN(c5ccccc5OC)CC4)nn3)cc2)cc1)C(=O)N[C@@H](CC(C)C)C(=O)O` [2b]?
concentration of maximum β-arrestin-2 recruitment (bell-shaped curve) (D2R/NTS1R): 300 nM; effect on forskolin-induced cAMP accumulation, cells expressing D2R only (in words) (D2SR; 10 μM forskolin): remained without significant effects; preference for the high- over the low-affinity binding site in the presence of GppNHp (D2LR/NTS1R; 100 μM GppNHp): 330 fold; Fraction high (fraction representing the high-affinity binding site) (D2LR/NTS1R; D2LR:NTS1R 1:2, mean ± s.e.m.): 55 ± 3%; high affinity binding sites (fraction) (D2LR/NTS1R; D2R/NTS1R = 2:1): 49 ± 3%; high affinity binding sites (fraction) (D2LR/NTS1R; D2R/NTS1R = 3:1): 30 ± 3%; fraction high +GppNHp (D2LR/NTS1R; in presence of 100 μM GppNHp): 46 ± 3%; Ki (hD3R): 5.5 ± 0.9 nM; antagonist behaviour at D2R (in words) (D2R): neutral antagonists; also recorded: fully inhibit the effect of 10 nM quinpirole; Ki (hD4.4R): 180 ± 20 nM; concentration of maximum effect (bell-shaped curve), D2R_D80A/NTS1R (D2R_D80A/NTS1R [1]): 300 nM; Emax (D2SR/NTS1R): 31 ± 3%; change of cAMP levels in the absence of forskolin (D2SR/NTS1R; no forskolin, vehicle 0 %, maximum effect of NT(8-13) 100 %): 83%

Which Ki (hD3R) does the source give for `CCCN(CCCCc1cn(-c2ccc(-c3ccc(C(=O)NCCOCCOCCOCCOCCOCCOCCC(=O)NCCOCCOCCOCCOCCOCCOCCC(=O)N[C@@H](CCCNC(=N)N)C(=O)N[C@@H](CCCNC(=N)N)C(=O)N4CCC[C@H]4C(=O)N(CCc4ccc(O)cc4)CC(=O)N[C@H](C(=O)N[C@@H](CC(C)C)C(=O)O)[C@@H](C)CC)cc3)cc2)nn1)C1Cc2ccccc2C1` [3f] here?
The Ki was 1.1 ± 0.1 nM.

What about the Ki (hNTS2R) of the same molecule?
Its Ki is 20 nM.

And the Ki (hD4.4R)?
The Ki was 71 ± 4 nM.

And the Ki ([2]; read-out: Ki (monophasic), striatal membranes, absence of NT(8-13))?
Its Ki is 28 ± 16 nM.

And the Ki ([2]; read-out: Ki in the presence of 1 μM NT(8-13), striatal membranes, monophasic)?
Its Ki is 29 ± 5 nM.

For `CCCN(CCCCc1cn(-c2ccc(-c3ccc(C(=O)NCCOC)cc3)cc2)nn1)C1Cc2ccccc2C1` [3g], which “inhibition of cAMP accumulation, D2R (D80A)/NTS1R (in words)” value (D2R_D80A/NTS1R [3]) is on record?
Its value is “unable to inhibit cAMP accumulation”.

What about the Ki (hD2LR) of the same molecule?
Its Ki is 7.6 ± 1.7 nM.

What about the Emax (D2SR; HEK-293T, read-out: Effect (Emax) D2SR, cAMP accumulation) of the same molecule?
The Emax was -65 ± 1%.

And the EC50 (D2SR; read-out: EC50 D2SR, cAMP accumulation)?
The EC50 was 2.8 ± 0.4 nM.

And the Ki (hD3R)?
The Ki was 0.53 ± 0.25 nM.

What about the Ki (human D2LR) of the same molecule?
The Ki was 21 ± 4 nM.

And the Ki (hNTS2R)?
The Ki was 300 ± 250 nM.

What about the Ki (hD2SR) of the same molecule?
Its Ki is 3.3 ± 0.8 nM.

What about the Ki (NTS1R [4]) of the same molecule?
The Ki was 180 ± 40 nM.

And the “receptor activation (cAMP), cells monoexpressing NTS1R (in words)” value (NTS1R [5]; 10 μM forskolin)?
Its value is “caused no effect”.

And the “cAMP response, cells expressing NTS1R only, absence of FSK (in words)” value (NTS1R [5]; no forskolin)?
Its value is “do not elicit any response”.

What about the Emax (D2SR/NTS1R) of the same molecule?
The Emax was -63 ± 2%.

What about the EC50 (D2SR/NTS1R; read-out: EC50 D2SR/NTS1R, cAMP accumulation) of the same molecule?
The EC50 was 3.5 ± 1.4 nM.

B1: bivalent control compound 2e (peptide)
chain: {2‑methoxyphenylpiperazine D2R antagonist pharmacophore-biphenyltriazole-PEG spacer 22‑atom}-RRP[N(4-hydroxyphenethyl)Gly]IL
modifications: reading uncertain
Which Ki [6] does the source give for B1 here?
Its Ki is 96 nM.

What about the Ki [7] of the same molecule?
The Ki was 30 nM.
